Measured values published in patent US11654094B2, “Composition comprising benzoic acid amide compound and cyclodextrin solubilizing agent” (AMOREPACIFIC CORPORATION, priority 2017, dated 2023).
Converted amounts (≈) assume the structure as drawn. Read-outs that look alike come from different tables or passages of the source.

How the values were obtained:
[1] = Solubility of DBAB for each type of cyclodextrin and their 1:1 combinations (amount of CD required); format: physicochemical; conditions: single cyclodextrin or 1:1 weight ratio combination
Description: In order to investigate the solubility of one part by weight of DBAB for each type of cyclodextrin and the synergistic effect between cyclodextrins, the solubility of each of α-CD, γ-CD, HP-α-CD, HP-β-CD and HP-γ-CD and the solubility of their 1:1 weight ratio combinations was determined, as shown in Table 4 below.

[2] = Solubility of DBAB at various weight ratios of HP-β-CD and γ-CD, total CD 0.5%; conditions: 0.2% by weight of each of HP-β-CD and γ-CD, test method of Table 5
Description: In this case, 10% by weight of PEG.PPG-17.6 copolymer, 0.1% by weight of DBAB, 39.4% by weight of propanediol, 50% by weight of water and 0.5% by weight of the total CD were used.
In addition, the test method of Table 5 was carried out by using 0.2% by weight of each of HP-β-CD and γ-CD with an addition of 0.1% by weight of HP-α-CD, HP-γ-CD, α-CD or β-CD.

[3] = Amount of solubilizers needed to dissolve DBAB in water (synergy of cyclodextrin with other solubilizers); format: physicochemical; conditions: for solubility of the composition: 0.1% by weight DBAB
From the text: The synergistic effect of cyclodextrin as a solubilizer of the present invention in combination with other solubilizers (a second solubilizer and a third solubilizer) was investigated.

[4] = pH and solubility of HP-β-CD/DBAB compositions; format: physicochemical; conditions: HP-β-CD and DBAB mixed at a weight ratio of 1:1
From the text: In addition to investigation of the solubility improvement with varying pH, the solubility of the composition was investigated with varying the pH of the composition and the weight ratio of HP-β-CD and DBAB as shown in Table 3 below.

[5] = Solubility of DBAB achieved by solvents; format: physicochemical; conditions: organic solvent or mixture
melanin synthesis = conditions: background statement; verified through cell and artificial skin tests; cited from earlier work
MITF = conditions: through the cAMP-PKA-CREB signal pathway; background statement; cited from earlier work

Molecule: hydroxypropyl-γ-cyclodextrin [HPγ]
- amount of CD required (weight ratio CD:DBAB, x:1) to transparently dissolve one part by weight of DBAB [1]: >20

Molecule: OC[C@H]1O[C@@H]2O[C@H]3[C@H](O)[C@@H](O)[C@@H](O[C@H]4[C@H](O)[C@@H](O)[C@@H](O[C@H]5[C@H](O)[C@@H](O)[C@@H](O[C@H]6[C@H](O)[C@@H](O)[C@@H](O[C@H]7[C@H](O)[C@@H](O)[C@@H](O[C@H]8[C@H](O)[C@@H](O)[C@@H](O[C@H]1[C@H](O)[C@H]2O)O[C@@H]8CO)O[C@@H]7CO)O[C@@H]6CO)O[C@@H]5CO)O[C@@H]4CO)O[C@@H]3CO [β, β-cyclodextrin]
- amount of CD required (weight ratio CD:DBAB, x:1) to transparently dissolve one part by weight of DBAB [1]: >20
- effect on solubility of DBAB of adding 0.1% by weight of a further cyclodextrin [2]: did not improve the solubility

Molecule: hydroxypropyl-β-cyclodextrin [HP-β-CD]
- PEG.PPG-17.6 copolymer replaced by 0.6% of HP-β-CD ([3]; composition comprising DBAB): 20%
- PEG.PPG-17.6 copolymer replaced by 0.1% by weight of HP-β-CD ([3]; composition with 0.1% by weight of DBAB): 20 % by weight
- amount of CD required (weight ratio CD:DBAB, x:1) to transparently dissolve one part by weight of DBAB [1]: 20

Molecule: hydroxypropyl-α-cyclodextrin [HPα]
- amount of CD required (weight ratio CD:DBAB, x:1) to transparently dissolve one part by weight of DBAB [1]: >20
- effect on solubility of DBAB of adding 0.1% by weight of a further cyclodextrin [2]: did not improve the solubility

Molecule: OC[C@H]1O[C@@H]2O[C@H]3[C@H](O)[C@@H](O)[C@@H](O[C@H]4[C@H](O)[C@@H](O)[C@@H](O[C@H]5[C@H](O)[C@@H](O)[C@@H](O[C@H]6[C@H](O)[C@@H](O)[C@@H](O[C@H]7[C@H](O)[C@@H](O)[C@@H](O[C@H]1[C@H](O)[C@H]2O)O[C@@H]7CO)O[C@@H]6CO)O[C@@H]5CO)O[C@@H]4CO)O[C@@H]3CO [α, α-cyclodextrin]
- amount of CD required (weight ratio CD:DBAB, x:1) to transparently dissolve one part by weight of DBAB [1]: >20
- effect on solubility of DBAB of adding 0.1% by weight of a further cyclodextrin [2]: did not improve the solubility

Molecule: COc1cc(OC)c(C23CC4CC(CC(C4)C2)C3)cc1C(=O)NCc1ccc(O)cc1O [DBAB, 5-adamantan-1-yl-N-(2,4-dihydroxybenzyl)-2,4-dimethoxy-benzoic acid amide]
- pH at which the composition has improved solubility [4]: ≥ 12.72
- solubility of the composition ([3]; 30% by weight PEG.PPG-17.6 copolymer, 0.6% by weight HP-β-CD): transparently dissolved
- solubility of the composition ([3]; 50% by weight PEG.PPG-17.6 copolymer, balance water): transparently dissolved
- solubility ([5]; PEG.PPG-17.6 copolymer, read-out: solubility of DBAB achieved by PEG.PPG-17.6 copolymer): 81.3 mg/mL (≈ 186 mM)
- solubility ([5]; propanediol, read-out: solubility of DBAB achieved by propanediol): 5.92 mg/mL (≈ 13.5 mM)
- melanin synthesis (melanin synthesis): inhibiting melanin synthesis
- expression of MITF (MITF): reduces the expression of MITF
